Source: US9549921B2, “Heterocyclic compounds and methods of use thereof for the treatment of hepatitis C” (priority 2014, dated 2017)
Read-outs that look alike come from different tables or passages of the source.

Experiments:
[1] = test system: HCV replicon genotype 1b; test: HCV replicon assay, genotype 1b (cell ELISA for NS3/4A); type: cell-based, hepatitis C virus
Experimental: (§1) The HCV NS5B inhibitory activity of the present compounds may be tested using assays known in the art. The HCV NS5B polymerase inhibitors described herein have activities in a genotype 1b replicon assay as described in the Examples. The assay is performed by incubating a replicon harboring cell-line in the presence of inhibitor for a set period of time and measuring the effect of the inhibitor on HCV replicon replication either directly by quantifying replicon RNA level, or indirectly by measuring enzymatic activity of a co-encoded reporter enzyme such as luciferase or β-lactamase. By performing a series of such measurements at different inhibitor concentrations, the effective inhibitory concentration of the inhibitor (EC50 or EC90) is determined. See Jan M. Vrolijk et al., A replicons-based bioassay for the measurement of interferons in patients with chronic hepatitis C, 110 J. VIROLOGICAL METHODS 201 (2003). Such assays may also be run in an automated format for high through-put screening. See Paul Zuck et al., A cell-based β-lactamase reporter gene assay for the identification of inhibitors of hepatitis C virus replication, 334 ANALYTICAL BIOCHEMISTRY 344 (2004).
(§2) Measurement of inhibition by compounds was performed using the HCV replicon system. Several different replicons encoding different HCV genotypes or mutations were used. In addition, potency measurements were made using different formats of the replicon assay, including different ways of measurements and different plating formats. See Jan M. Vrolijk et al., A replicons-based bioassay for the measurement of interferons in patients with chronic hepatitis C, 110 J. VIROLOGICAL METHODS 201 (2003); Steven S. Carroll et al., Inhibition of Hepatitis C Virus RNA Replication by 2′-Modified Nucleoside Analogs, 278(14) J. BIOLOGICAL CHEMISTRY 11979 (2003). However, the underlying principles are common to all of these determinations, and are outlined below.
(§3) Stable neomycin phosphotransferase encoding replicons-harboring cell lines were used, so all cell lines were maintained under G418 selection prior to the assay. Potency was deteremined using a cell ELISA assay with an antibody to the replicons encoded NS3/4a protease. See Caterina Trozzi et al., In Vitro Selection and Characterization of Hepatitis C Virus Serine Protease Variants Resistant to an Active-Site Peptide Inhibitor, 77(6) J. Virol. 3669 (2003). To initiate an assay, replicon cells were plated in the presence of a dilution series of test compound in the absence of G418. Typically, the assays were performed in a 96-well plate formate for manual operation, or a 384-well plate format for automated assay. Replicon cells and compound were incubated for 96 hours. At the end of the assay, cells were washed free of media and compound, and the cells were then lysed. RNA was quantified indirectly through detection of replicon-encoded NS3/4A protein levels, through an ELISA-based assay with an antibody specific for NS3/4A. IC50 determinations were calculated as a percentage of a DMSO control by fitting the data to a four-parameter fit function and the data obtained is provided in the table below.
(§4) Data for selected compounds of the present invention was obtained for genotypes 1a and 1b using this method and is provided in the table below: […]

[2] = test system: HCV replicon genotype 1a; test: HCV replicon assay, genotype 1a (cell ELISA for NS3/4A); type: cell-based, hepatitis C virus
Experimental: as §1, §2, §3, §4

[3] = Hepatitis C virus, 96 h, read-out: 1b IC50 (nM), HCV genotype 1b replicon cells, 96 hours incubation, NS3/4A ELISA readout, % of DMSO control
[4] = Hepatitis C virus, 96 h, read-out: 1a IC50 (nM), HCV genotype 1a replicon cells, 96 hours incubation, NS3/4A ELISA readout, % of DMSO control
[5] = read-out: 1b IC50, HCV genotype 1b replicon cells, 96 hours incubation, NS3/4A ELISA readout, % of DMSO control
[6] = read-out: 1a IC50, HCV genotype 1a replicon cells, 96 hours incubation, NS3/4A ELISA readout, % of DMSO control

SMILES	IC50 [1, 3] [nM]	IC50 [2, 4] [nM]	IC50 [1, 5] [nM]	IC50 [2, 6] [nM]
CNC(=O)c1c(-c2ccc(F)cc2)oc2cc(N(C)S(C)(=O)=O)c([C@H]3CN(C(=O)c4cc5cccc(F)c5[nH]4)CCO3)cc12 (single isomer, unassigned) [Example 6, 5-(4-(7-fluoro-1H-indole-2-carbonyl)morpholin-2-yl)-2-(4-fluorophenyl)-N-methyl-6-(N-methylmethylsulfonamido)benzofuran-3-carboxamide]	17.4	11.1		
CNC(=O)c1c(-c2ccc(F)cc2)oc2cc(N(C)S(C)(=O)=O)c([C@H]3CN(C(=O)c4cc5cccc(F)c5[nH]4)CCO3)cc12 (single isomer, unassigned) [Example 7, 5-(4-(7-fluoro-1H-indole-2-carbonyl)morpholin-2-yl)-2-(4-fluorophenyl)-N-methyl-6-(N-methylmethylsulfonamido)benzofuran-3-carboxamide]			11.6	5.79
CNC(=O)c1c(-c2ccc(F)cc2)oc2cc(N(C)S(C)(=O)=O)c([C@H]3CN(C(=O)c4cc5c(F)cccc5n4C)CCO3)cc12 (single isomer, unassigned) [Example 8, 5-(4-(4-fluoro-1-methyl-1H-indole-2-carbonyl)morpholin-2-yl)-2-(4-fluorophenyl)-N-methyl-6-(N-methylmethylsulfonamido)benzofuran-3-carboxamide]	36.9	28.2		
CNC(=O)c1c(-c2ccc(F)cc2)oc2cc(N(C)S(C)(=O)=O)c([C@H]3CN(C(=O)c4cc5c(F)cccc5n4C)CCO3)cc12 (single isomer, unassigned) [Example 9, 5-(4-(4-fluoro-1-methyl-1H-indole-2-carbonyl)morpholin-2-yl)-2-(4-fluorophenyl)-N-methyl-6-(N-methylmethylsulfonamido)benzofuran-3-carboxamide]			67.8	54
CNC(=O)c1c(-c2ccc(F)cc2)oc2cc(N(C)S(C)(=O)=O)c([C@H]3CN(c4nc5ccccc5o4)CCO3)cc12 (single isomer, unassigned) [Example 10, 5-(4-(benzo[d]oxazol-2-yl)morpholin-2-yl)-2-(4-fluorophenyl)-N-methyl-6-(N-methylmethylsulfonamido)benzofuran-3-carboxamide]	26.6	16		
CNC(=O)c1c(-c2ccc(F)cc2)oc2cc(N(C)S(C)(=O)=O)c([C@H]3CN(c4nc5ccccc5o4)CCO3)cc12 (single isomer, unassigned) [Example 11, 5-(4-(benzo[d]oxazol-2-yl)morpholin-2-yl)-2-(4-fluorophenyl)-N-methyl-6-(N-methylmethylsulfonamido)benzofuran-3-carboxamide]			17.2	21.4
CNC(=O)c1c(-c2ccc(F)cc2)oc2cc(N(C)S(C)(=O)=O)c([C@@H]3CCN(C(=O)c4cc5c(F)cccc5n4C)C3)cc12 (single isomer, unassigned) [Example 14, 5-(1-(4-fluoro-1-methyl-1H-indole-2-carbonyl)pyrrolidin-3-yl)-2-(4-fluorophenyl)-N-methyl-6-(N-methylmethylsulfonamido)benzofuran-3-carboxamide]			2.77	25.9
CNC(=O)c1c(-c2ccc(F)cc2)oc2cc(N(C)S(C)(=O)=O)c([C@@H]3CCN(C(=O)c4cc5c(F)cccc5n4C)C3)cc12 (single isomer, unassigned) [Example 15, 5-(1-(4-fluoro-1-methyl-1H-indole-2-carbonyl)pyrrolidin-3-yl)-2-(4-fluorophenyl)-N-methyl-6-(N-methylmethylsulfonamido)benzofuran-3-carboxamide]			11.2	125
CNC(=O)c1c(-c2ccc(F)cc2)oc2cc(N(C)S(C)(=O)=O)c([C@@H]3CCCN(C(=O)Cc4ccc(F)cc4)C3)cc12 (single isomer, unassigned) [Example 17, 2-(4-fluorophenyl)-5-(1-(2-(4-fluorophenyl)acetyl)piperidin-3-yl)-N-methyl-6-(N-methylmethylsulfonamido)benzofuran-3-carboxamide]	58.2	138		
CNC(=O)c1c(-c2ccc(F)cc2)oc2cc(N(C)S(C)(=O)=O)c([C@@H]3CCCN(C(=O)Cc4ccc(F)cc4)C3)cc12 (single isomer, unassigned) [Example 18, 2-(4-fluorophenyl)-5-(1-(2-(4-fluorophenyl)acetyl)piperidin-3-yl)-N-methyl-6-(N-methylmethylsulfonamido)benzofuran-3-carboxamide]			72.2	188
CNC(=O)c1c(-c2ccc(F)cc2)oc2cc(N(C)S(C)(=O)=O)c([C@@H]3CCCN(C(=O)c4ccc(F)cc4)C3)cc12 (single isomer, unassigned) [Example 19, 5-(1-(4-fluorobenzoyl)piperidin-3-yl)-2-(4-fluorophenyl)-N-methyl-6-(N-methylmethylsulfonamido)benzofuran-3-carboxamide]	50.8	43.8		
CNC(=O)c1c(-c2ccc(F)cc2)oc2cc(N(C)S(C)(=O)=O)c([C@@H]3CCCN(C(=O)c4ccc(F)cc4)C3)cc12 (single isomer, unassigned) [Example 20, 5-(1-(4-fluorobenzoyl)piperidin-3-yl)-2-(4-fluorophenyl)-N-methyl-6-(N-methylmethylsulfonamido)benzofuran-3-carboxamide]			46.9	48
CNC(=O)c1c(-c2ccc(F)cc2)oc2cc(N(C)S(C)(=O)=O)c([C@@H]3CCCN(C(=O)c4cc5ccccc5[nH]4)C3)cc12 (single isomer, unassigned) [Example 21, 5-(1-(1H-indole-2-carbonyl)piperidin-3-yl)-2-(4-fluorophenyl)-N-methyl-6-(N-methylmethylsulfonamido)benzofuran-3-carboxamide]	9.96			16.2
CNC(=O)c1c(-c2ccc(F)cc2)oc2cc(N(C)S(C)(=O)=O)c([C@@H]3CCCN(C(=O)c4cc5ccccc5[nH]4)C3)cc12 (single isomer, unassigned) [Example 22, 5-(1-(1H-indole-2-carbonyl)piperidin-3-yl)-2-(4-fluorophenyl)-N-methyl-6-(N-methylmethylsulfonamido)benzofuran-3-carboxamide]			18.8	40.8
CNC(=O)c1c(-c2ccc(F)cc2)oc2cc(N(C)S(C)(=O)=O)c([C@@H]3CCCN(C(=O)c4nc5ccccc5n4C)C3)cc12 (single isomer, unassigned) [Example 23, 2-(4-fluorophenyl)-N-methyl-5-(1-(1-methyl-1H-benzo[d]imidazole-2-carbonyl)piperidin-3-yl)-6-(N-methylmethylsulfonamido)benzofuran-3-carboxamide]	57.7	45.5		
CNC(=O)c1c(-c2ccc(F)cc2)oc2cc(N(C)S(C)(=O)=O)c([C@@H]3CCCN(C(=O)c4nc5ccccc5n4C)C3)cc12 (single isomer, unassigned) [Example 24, 2-(4-fluorophenyl)-N-methyl-5-(1-(1-methyl-1H-benzo[d]imidazole-2-carbonyl)piperidin-3-yl)-6-(N-methylmethylsulfonamido)benzofuran-3-carboxamide]			40.5	32.7
CNC(=O)c1c(-c2ccc(F)cc2)oc2cc(N(C)S(C)(=O)=O)c([C@@H]3CCCN(C(=O)c4cc5c(F)cccc5n4C)C3)cc12 (single isomer, unassigned) [Example 25, 5-(1-(4-fluoro-1-methyl-1H-indole-2-carbonyl)piperidin-3-yl)-2-(4-fluorophenyl)-N-methyl-6-(N-methylmethylsulfonamido)benzofuran-3-carboxamide]		16.4	5.26	
